Read-outs that look alike come from different tables or passages of the source.
Tests used:
[1] = cited from earlier work
[2] = system: neuropathic (SNI) rats; test: Mechanical allodynia (von Frey, 50% paw withdrawal threshold) after spared nerve injury (SNI); assay type: in vivo, rat; settings: for withdrawal threshold over time vs. vehicle (two-way ANOVA, FIG. 1A): 0.5-8 h; for withdrawal threshold vs. vehicle, Bonferroni post-hoc p: after 1 hour; for AUC of withdrawal threshold vs. vehicle (FIG. 3B): p<0.01; for Area Under the Curve (AUC) of withdrawal threshold vs. vehicle, Bonferroni p (FIG. 2B) / withdrawal threshold over time vs. vehicle (two-way ANOVA, FIG. 2A): dose not given for prodrugs E, F; for withdrawal threshold over time vs. vehicle (two-way ANOVA, FIG. 2A): per os
Description: Experiments were performed in male Sprague-Dawley rats (body weight: 250-300 g; Charles River Laboratories, St. Constant, QC, Canada) and adult male C57BL mice (body weight: 25-30 g; inbred). All animals were housed in small groups at a constant temperature of 22° C., with food and water provided ad libitum, and maintained under a 12 h light/dark cycle (lights on at 7:00 AM; lights off at 7:00 PM). All experimental procedures were conducted in accordance with the guidelines of the Canadian Council on Animal Care, and the protocols were approved by the Animal Care Committee at McGill University.
The different prodrug compounds as synthesized in Example 2 were tested and compared with Gabapentin (150 mg/kg, purchased from Sigma Aldrich, US). Prodrug was dissolved in saline, water, or a vehicle composed of 40% PEG400 and 60% water. Gabapentin was dissolved in a vehicle composed of 40% PEG400 and 60% water. All drugs (doses see the procedure descriptions below) were administrated per os (gavage) through a curved feeding tube (20 G for rats and 22 G for mice) at the beginning of the experiment unless otherwise specified. The dose of prodrug was chosen based on its pharmacokinetic properties, and the doses of Gabapentin were chosen from literature (Lopez-Canul, Palazzo et al. 2015).
Spared nerve injury was performed according to the method of (Decosterd I and Woolf CJ, 2000), see also Lopez-Canul et al., 2015. Rats and mice were anesthetized with isoflurane. The sciatic nerve was exposed at mid-thigh level distal to the trifurcation and freed of connective tissue; the three peripheral branches (sural, common peroneal, and tibial nerves) of the sciatic nerve were exposed without stretching nerve structures. Both tibial and common peroneal nerves were ligated and transected together. Tactile allodynia was absent in healthy (pre-surgery) and sham rats, and the mechanical withdrawal threshold in rats before SNI (pre-surgery) or sham was very close to the cutoff of dynamic plantar aesthesiometer (30 g) (Ugo Basile, Varese, Italy).
On day 14 after surgery, individual rats were placed in a test chamber (clear plastic wire mesh-bottomed cage) and allowed to acclimatize for 30 to 40 minutes. Von Frey filaments (Stoelting, Wood Dale, IL) were used to measure the 50% paw withdrawal threshold using the up-and-down method reported by {Chaplan, 1994 #399}. […] Lifting of the paw indicated a positive response and prompted the use of the […], whereas absence of paw withdrawal after 5 seconds indicated a negative response and prompted the next filament of increasing weight. This paradigm continued for 4 more measurements after the initial change of the behavioral response or until 5 consecutive negative or 4 consecutive positive responses. Based on observations on normal, unoperated, and sham-operated rats, the cutoff value of 15 g was selected as the upper limit for testing because stiffer hairs tended to raise the entire limb rather than to buckle, substantially changing the nature of the stimulus. The resulting scores were used to calculate the 50% response threshold using the formula proposed by Dixon. Allodynia was considered to be present when paw withdrawal thresholds were <4 g, and drugs raising this threshold were considered antiallodynic {Lopez-Canul, 2015}. Accordingly, all nerve ligated rats were verified to be allodynic, responding to a stimulus of <4 g. Rats without mechanical allodynia were excluded. After the determination of the basal response, allodynia was assessed at baseline, 0.5, 1, 1.5, 2, 2.5, 3, 4, 5, 6, 7, and 8 hours post-administration for each treatment described below. Groups of 5 to 6 rats per treatment were used, with each animal being used for 1 treatment only. […]

[3] = dose of 40 mg/kg; cited from earlier work
[4] = in vivo; cited from earlier work
[5] = Oral bioavailability and brain penetrance of UCM765 and UCM924

COc1ccc2cccc(CCNC(C)=O)c2c1 [Agomelatine]
bioavailability ([1]; at the therapeutic oral dose): < 5%

COc1ccc2[nH]cc(CCNC(C)=O)c2c1 [MLT, Melatonin]
half-life ([1]; in vivo): < 30 min

CC(=O)N(CCN(c1ccc(F)cc1)c1cccc(Br)c1)COC(=O)C(C)(C)C [Prodrug A, (N-(2-((3-bromophenyl)(4-fluorophenyl)amino)ethyl)acetamido) methyl pivalate]
Area Under the Curve (AUC) of withdrawal threshold vs. vehicle, Bonferroni p (FIG. 1B) ([2]; 50 mg/kg per os): < 0.01
withdrawal threshold over time vs. vehicle (two-way ANOVA, FIG. 1A) ([2]; 50 mg/kg per os): significantly increased the withdrawal threshold
withdrawal threshold vs. vehicle, Bonferroni post-hoc p ([2]; 50 mg/kg per os): < 0.001

CCOC(=O)OCN(CCN(c1ccc(F)cc1)c1cccc(Br)c1)C(C)=O [Prodrug B, (N-(2-((3-bromophenyl)(4-fluorophenyl)amino)ethyl)acetamido) methyl ethyl carbonate]
withdrawal threshold over time vs. vehicle (two-way ANOVA, FIG. 1A) ([2]; 50 mg/kg per os): significantly increased the withdrawal threshold
withdrawal threshold vs. vehicle, Bonferroni post-hoc p ([2]; 50 mg/kg per os): < 0.0001

CC(=O)N(CCN(c1ccc(F)cc1)c1cccc(Br)c1)C(=O)OC(C)OC(=O)CN.Cl (stereo not shown) [Prodrug C, 1-((acetyl(2-((3-bromophenyl)(4-fluorophenyl)amino)ethyl)carbamoyl)oxy)ethyl 2-aminoacetate hydrochloride]
withdrawal threshold over time vs. vehicle (two-way ANOVA, FIG. 1A) ([2]; 50 mg/kg per os): significantly increased the withdrawal threshold

CC(=O)N(CCN(c1ccc(F)cc1)c1cccc(Br)c1)C(=O)OCOC(=O)CN [Prodrug D-2, ((acetyl(2-((3-bromophenyl)(4-fluorophenyl)amino)ethyl)carbamoyl)oxy)methyl 2-aminoacetate methane-sulfonate]
effect on withdrawal threshold in the SNI model (FIG. 3A) ([2]; 50 mg/kg): not effective
AUC of withdrawal threshold vs. vehicle (FIG. 3B) ([2]; 50 mg/kg): significant pro-nociceptive effect
effect on withdrawal threshold in the SNI model (FIG. 3A) ([2]; 100 mg/kg): effective
AUC of withdrawal threshold vs. vehicle (FIG. 3B) ([2]; 100 mg/kg): modest, but significant anti-nociceptive effect

CC(=O)N(CCN(c1ccc(F)cc1)c1cccc(Br)c1)C(=O)OCOC(=O)C1CCCN1.Cl (stereo not shown) [Prodrug E, ((acetyl(2-((3-bromophenyl)(4-fluorophenyl)amino)ethyl)carbamoyl)oxy)methyl pyrrolidine-2-carboxylate hydrochloride]
Area Under the Curve (AUC) of withdrawal threshold vs. vehicle, Bonferroni p (FIG. 2B) [2]: < 0.05
withdrawal threshold vs. vehicle, post-hoc p (FIG. 2A) ([2]; hour 2, 4 and 5): < 0.05
withdrawal threshold, treatment vs. vehicle p (FIG. 2A) ([2]; overall): 0.04
withdrawal threshold over time vs. vehicle (two-way ANOVA, FIG. 2A) [2]: different from vehicle

CC(=O)N(CCN(c1ccc(F)cc1)c1cccc(Br)c1)C(=O)OCOC(=O)[C@@H](N)CC(C)C.Cl [Prodrug F]
withdrawal threshold vs. vehicle, Bonferroni post-hoc p (FIG. 2A) ([2]; after 5, 6 and 7 hours): < 0.0001
withdrawal threshold vs. vehicle, Bonferroni post-hoc p (FIG. 2A) ([2]; after 3 hours): 0.05
Area Under the Curve (AUC) of withdrawal threshold vs. vehicle, Bonferroni p (FIG. 2B) [2]: < 0.001
withdrawal threshold over time vs. vehicle (two-way ANOVA, FIG. 2A) [2]: significant difference

CCC(=O)NCC[C@@H]1CCc2ccc3c(c21)CCO3 [Ramelteon]
absolute oral bioavailability ([1]; extensive first-pass metabolism): 1.8%

COc1cccc(N(CCNC(C)=O)c2ccccc2)c1 [UCM765, N-{2-[(3-methoxyphenyl)-phenylamino]ethyl}acetamide]
restorative sleep (NREM sleep) [3]: facilitated restorative sleep
anti-anxiety properties [4]: possesses anti-anxiety properties
Kp ([5]; brain): 2.5
bioavailability ([5]; in vivo, po): 2%

— patent US20250339396A1 (COSMAS THERAPEUTICS DEVELOPMENT INC., priority 2021, published 2025)
